Reference: paper PMC6030077, “Dual role of HDAC10 in lysosomal exocytosis and DNA repair promotes neuroblastoma chemoresistance” (Scientific Reports, 2018)

Columns and labels:
[1] = system: BE(2)-C cells; experiment: Alkaline single cell gel electrophoresis assay (comet assay); type: cell-based, human; conditions: 18 h
Protocol: BE(2)-C cells were treated with the HDAC6/10 inhibitor tubastatin A alone or in combination with the genotoxic drug doxorubicin (100 ng/ml doxorubicin, 7.5 µM tubastatin) for 18 h. Untreated cell aliquots and cells irradiated with 5 Gy (^137Cs radiation source, dose rate of 1 Gy min^−1) were used as negative and positive controls, respectively. Cells were subsequently analyzed by the alkaline comet assay as previously described[68],[69] with some modifications. In brief, the cells were mixed with 0.7% low-melting temperature agarose (Biozym), plated on two-well slides (Trevigen), and subsequently lysed overnight. Single cell electrophoresis was performed at 4 °C. Analysis of DNA damage was accomplished by fluorescence microscopy using a fully automated cell scanning system Metafer-4 (Metasystems) as described in[70]. DNA damage was assessed as “Tail DNA in %”. Statistical evaluation of two differently treated cell aliquots was performed with the Mann Whitney test using GraphPad Prism version 5.04 for Windows.

[2] = system: IMR-32 cells; experiment: Flow cytometric quantification of intracellular doxorubicin accumulation, IMR-32; type: cell-based, human; conditions: 50 ng/ml doxorubicin +/− 7.5 µM tubastatin A, 18 h
Protocol: (§1) For flow cytometric quantification of intracellular doxorubicin after HDAC6/10 inhibition, BE(2)-C, SK-N-AS, IMR-32, HAP1 wild type and HDAC10 knockout cells were seeded in 6-well dishes at a density of 1.5 ∗ 10^5 cells/well (BE(2)-C and SK-N-AS, HAP1) and 3 ∗ 10^5 cells/well (IMR-32). Cells were treated with 25 ng/ml, 50 ng/ml, 100 ng/ml or 1 µg/ml doxorubicin, respectively, for 3–48 h (see respective figure legend). Where indicated, cells were co-treated with HDAC6/10 or lysosomal inhibitors. In case of co-treatment with vacuolin-1, vacuolin-1 was directly added to cells under doxorubicin treatment 1 h or 24 h prior to analysis. Flow cytometric quantification of intracellular doxorubicin after HDAC6, HDAC10 or P-glycoprotein knockdown in BE(2)-C cells was performed 5 days (P-glycoprotein) or 6 days (HDAC6/10) after transfection with siRNA. To that end, cells were seeded 3–4 days after transfection into 6-well dishes at 1.5 ∗ 10^5 cells per well and treated with 100 ng/ml doxorubicin +/− HDAC6/10 and lysosomal inhibitors for the last 24 h. After doxorubicin treatment, BE(2)-C, SK-N-AS, IMR-32 and HAP1 cells were washed with ice-cold RPMI w/o phenol-red and detached using Trypsin/EDTA for 3 minutes at 37 °C. Cells were centrifuged, resuspended in RPMI w/o phenol red and doxorubicin fluorescence was quantified on a BD FACSCanto II platform using the PE filter setting.

[3] = system: SK-N-AS cells; experiment: Flow cytometric quantification of intracellular doxorubicin accumulation, SK-N-AS; type: cell-based, human; conditions: 100 ng/ml doxorubicin +/− 7.5 µM tubastatin A, 48 h
Protocol: as §1

[4] = system: BE(2)-C cells; experiment: Flow cytometric analysis of cell surface LAMP-1 (lysosomal exocytosis); type: cell-based, human; conditions: 6 h tubastatin A 7.5 µM, bufexamac 30 µM, tubacin 7.5 µM, vacuolin-1 10 µM 1 h
Protocol: Cells were dissociated from dishes using non-enzymatic cell dissociation reagent for five minutes. Cells were counted using a ViCell XR automatic cell counter (Beckmann Coulter) and 2.5 ∗ 10^5 cells were transferred into a pre-cooled 96-well round bottom plate (TPP92097). Cells were stained for 1.5–2 hours on ice with primary anti P-gp (Biozol ABA-AB00143-1.1), LAMP-1 (H4A3, DHSB) antibody or isotype control (DLN-05794, Dianova, […]) and for 1 hour with APC-labeled secondary antibody (Dianova 115-136-068). Cells were washed three times in FACS buffer (5% FBS in PBS) after each antibody incubation step. For evaluation of DNA double-strand breaks, cells were detached from dishes using trypsin, counted using a ViCell XR automatic cell counter (Beckmann Coulter) and transferred into a pre-cooled 96-well round bottom plate (4 ∗ 10^6 cells/well). Cells were fixed and permeabilized using the eBioscience^TM Foxp3/Transcription Factor Staining Buffer Set (Thermo Fisher Scientific). Cells were stained for 1.5 h with Phospho-Histone H2A.X (S139) primary antibody (CST #9718) and for 1 h in Alexa-488-labeled secondary antibody (ThermoFisher A-11008). Cells were washed three times in 1× permeabilization buffer after each antibody incubation step and fluorescence was quantified on a BD FACSCanto II platform.

[5] = system: BE(2)-C cells; experiment: Pulse-chase analysis of doxorubicin secretion/retention; type: cell-based, human; conditions: 12 h pre-treatment, 1 µg/ml doxorubicin 3 h, washout, relative to t0
Protocol: To test whether HDAC10 inhibition prolonged the retention of doxorubicin, we used a pulse-chase approach in which BE(2)-C cells were pre-treated over night with HDAC6/10 inhibitors and then loaded with high concentrations of doxorubicin for 3 h (1 µg/ml). After doxorubicin washout, HDAC6/10 or HDAC6 inhibitors were re-added (t0), and intracellular doxorubicin fluorescence was measured at t0, as well as 3 h (t3h) and 6 h (t6h) after doxorubicin removal (Fig. 5h–k). […] In summary, secretion of doxorubicin was slowed down in case of HDAC6/10 inhibition but not by specific HDAC6 inhibition alone.
as §1

[6] = system: BE(2)-C cells; experiment: Colony formation assay; type: cell-based, human; conditions: treated for 24 h, 11 more days growth
Protocol: RNA isolation and real-time RT-PCR
RNA was isolated from neuroblastoma cell lines using the RNeasy MiniKit (Qiagen) according to
manufacturer's instructions. Real-time RT-PCR was performed as described in1. Data were normalized
to neuroblastoma housekeeping genes SDHA and […] and depicted as fold change relative to
negative control. The following primer pairs were used: HPRT (hypoxanthine
phosphoribosyltransferase 1, forward: 5′-[…]-3′ reverse: 5′-
-3′, ABCB1 (P-GP), forward: 5'-[…]-
3', reverse: 5'-[…]-3' , SDHA (succinate dehydrogenase complex,
subunit A, forward: 5′-[…]-3′, reverse: 5′-
BE(2)-C cells were seeded on 6-well plates at a density of 800 cells per well and treated as indicated
for 24 hours. After 24 hours, drugs were washed out and cells were allowed to grow for 11 more days
before staining of viable cell colonies with crystal violet (1 % crystal violet (w/v) in 70% ethanol). For
quantification, the plates were scanned, and colonies were counted in […] binary pictures with the
ITCN plugin for ImageJ software (U. S. National Institutes of Health, Bethesda, MD,
USA; http://imagej.nih.gov/ij/).

[7] = system: BE(2)-C cells; experiment: Cell viability, automated trypan blue exclusion, BE(2)-C; type: cell-based, human
Protocol: (§2) Adherent cell lines were trypsinized and cells were pooled with corresponding supernatant, centrifuged and resuspended in 1.5 ml cell culture media. Cell viability was measured by automated trypan blue staining with the Vi-Cell XR Cell Viability Analyzer from Beckman Coulter (Krefeld, Germany).

[8] = system: proliferating human fibroblasts; experiment: Cell viability, automated trypan blue exclusion, fibroblasts; type: cell-based; conditions: 7.5 µM tubastatin A
Protocol: as §2

## CN1CCc2c(c3ccccc3n2Cc2ccc(C(=O)NO)cc2)C1 [tubastatin A]
[1]; tubastatin A 7.5 µM + doxorubicin 100 ng/ml
  DSBs in comet assays, addition to doxorubicin treatment: substantially increased doxorubicin induced DSBs
[1]; tubastatin A 7.5 µM or doxorubicin 100 ng/ml
  DSBs in comet assays, single treatment: increased DSBs only trend-wise
[2]
  doxorubicin accumulation, IMR-32: increased accumulation of doxorubicin
[3]
  doxorubicin accumulation, SK-N-AS: increased accumulation of doxorubicin
[4]
  cell surface LAMP-1 levels: reduced surface LAMP-1 levels
[5]
  retention of intracellular doxorubicin 3 h and 6 h after doxorubicin removal: retained higher levels of intracellular doxorubicin
[6]
  growth of BE(2)-C cells in colony assays, combination with doxorubicin: effectively reduce growth
[7]; 100 ng/ml doxorubicin, 7.5 µM tubastatin A or vacuolin-1 alone
  viability of BE(2)-C cells, single treatment: did not substantially reduce cell viability
[7]; 7.5 µM tubastatin A
  viability of BE(2)-C cells, combination with 100 ng/ml doxorubicin, 24 h or 48 h: strongly reduced viability
[8]
  cell death in proliferating fibroblasts, combination with 100 ng/ml doxorubicin, 24 h or 48 h: did not induce significant cell death
